Measurements reported in the CheMixHub viscosity set.
± gives the uncertainty stated by the source.

Test: xn = mol fraction of the nth substance listed

CC(CC(C)(C)C)CC(C)(C)CC(C)(C)C (stereo not given) + Cc1ccccc1
viscosity [mPa·s], 100 kPa
Settings | x2 = 0.4498 | x2 = 0.7104 | x2 = 0.8804
298.15 K | 1.499 ± 0.14 | 0.946 ± 0.09 | 0.684 ± 0.065
313.15 K | 1.196 ± 0.11 | 0.78 ± 0.074 | 0.58 ± 0.055

CC(=O)OC(C)C + Cc1cccc(C)c1
viscosity [mPa·s], 101 kPa
Settings | x1 = 0.0998 | x1 = 0.212 | x1 = 0.3176 | x1 = 0.4048 | x1 = 0.5079 | x1 = 0.6118 | x1 = 0.7201 | x1 = 0.8193 | x1 = 0.9305
303.15 K | 0.544 ± 0.011 | 0.53 ± 0.011 | 0.518 ± 0.011 | 0.509 ± 0.011 | 0.499 ± 0.011 | 0.489 ± 0.011 | 0.481 ± 0.011 | 0.474 ± 0.011 | 0.466 ± 0.011
313.15 K | 0.488 ± 0.011 | 0.475 ± 0.011 | 0.464 ± 0.011 | 0.456 ± 0.011 | 0.447 ± 0.011 | 0.438 ± 0.011 | 0.43 ± 0.011 | 0.423 ± 0.011 | 0.417 ± 0.01

CCCC[N+](CCCC)(CCCC)Cc1ccccc1.[Cl-] + OCCOCCO
Settings | viscosity [mPa·s]
293.15 K, 100 kPa, x1 = 0.25 | 433.5 ± 32

CC(O)=S + CC(C)=O
298.1 K, 101 kPa
Settings | viscosity [mPa·s]
x1 = 0.2 | 0.405 ± 0.032
x1 = 0.4 | 0.479 ± 0.036
x1 = 0.5 | 0.511 ± 0.037
x1 = 0.6 | 0.551 ± 0.039
x1 = 0.8 | 0.624 ± 0.043

CCCCNCCCC + CCCCCCCO
viscosity [mPa·s], 101.33 kPa
Settings | x1 = 0.0975 | x1 = 0.197 | x1 = 0.2901 | x1 = 0.3789 | x1 = 0.4808 | x1 = 0.5861 | x1 = 0.685 | x1 = 0.7862 | x1 = 0.8807
303.15 K | 4.226 ± 0.048 | 3.629 ± 0.041 | 3.099 ± 0.036 | 2.63 ± 0.03 | 2.15 ± 0.025 | 1.741 ± 0.021 | 1.432 ± 0.017 | 1.171 ± 0.015 | 0.9696 ± 0.012
313.15 K | 3.151 ± 0.036 | 2.716 ± 0.031 | 2.337 ± 0.027 | 2.013 ± 0.024 | 1.685 ± 0.02 | 1.393 ± 0.017 | 1.169 ± 0.015 | 0.9814 ± 0.012 | 0.8316 ± 0.011

CCOC(=O)C(=O)OCC + CCOC(C)=O
viscosity [mPa·s], 101 kPa
Settings | x1 = 0.0949 | x1 = 0.196 | x1 = 0.3019 | x1 = 0.4065 | x1 = 0.5006 | x1 = 0.6036 | x1 = 0.6954 | x1 = 0.7993 | x1 = 0.8948
303.15 K | 0.458 ± 0.028 | 0.535 ± 0.032 | 0.636 ± 0.038 | 0.736 ± 0.044 | 0.844 ± 0.051 | 0.978 ± 0.059 | 1.107 ± 0.067 | 1.265 ± 0.076 | 1.428 ± 0.086
313.15 K | 0.423 ± 0.026 | 0.486 ± 0.029 | 0.56 ± 0.034 | 0.647 ± 0.039 | 0.734 ± 0.044 | 0.847 ± 0.051 | 0.95 ± 0.057 | 1.081 ± 0.065 | 1.203 ± 0.072
323.15 K | 0.381 ± 0.023 | 0.436 ± 0.026 | 0.499 ± 0.03 | 0.571 ± 0.034 | 0.646 ± 0.039 | 0.74 ± 0.045 | 0.825 ± 0.05 | 0.928 ± 0.056 | 1.028 ± 0.062

CCCC(C)O (stereo not given) + C1CCCCC1
303.15 K, 101.33 kPa
Settings | viscosity [mPa·s]
x1 = 0.1049 | 0.874 ± 0.011
x1 = 0.2028 | 0.94 ± 0.012
x1 = 0.3035 | 1.03 ± 0.013
x1 = 0.4031 | 1.151 ± 0.014
x1 = 0.5017 | 1.306 ± 0.016
x1 = 0.6043 | 1.534 ± 0.018
x1 = 0.6903 | 1.772 ± 0.021
x1 = 0.801 | 2.116 ± 0.025
x1 = 0.9115 | 2.521 ± 0.029

OC(c1ccccc1)c1ccccc1 + CCCCCOC(C)=O
Settings | viscosity [mPa·s]
298.15 K, 101 kPa, x2 = 0.5 | 1.496 ± 0.015
